How the values were obtained:
[1] = cited from earlier work
[2] = solubility in sterile distilled water; assay type: physicochemical; conditions: thermodynamic from solid, read-out: maximum solubility
Excerpt: Sodium cromoglycate may be delivered from an implanted pump without the use of a catheter. For example, a DUROS® osmotic pump could be used. […] The formulation of sodium cromoglycate may then be loaded into a DUROS® pump under aseptic conditions. The pump is implanted in a subject, for instance subcutaneously in the upper arm, under local anesthetic and the drug would be released therefrom into the body of the subject. [formula]

[3] = test system: exercise-induced bronchoconstriction; conditions: inhaled administration, plasma concentrations of 4-6 ng/ml; cited from earlier work

- solubility [2]: ~120 mg/mL
SMILES: O=C(O)c1cc(=O)c2c(OCC(O)COc3cccc4oc(C(=O)O)cc(=O)c34)cccc2o1 [sodium cromoglycate, Sodium cromoglycate]
- bioavailability, inhaled ([1]; inhaled): 7.5%
- oral bioavailability ([1]; oral): less than 1%
- inhibition of exercise-induced bronchoconstriction [3]: 66%
